Columns and labels:
[1] = biological target: T1, RNR (RNR1:RNR2 1:1) (Homo sapiens, UniProt P23921); assay: RNR enzyme activity, rapid-fire mass spectrometry (RF/MS) assay; assay type: biochemical; conditions: [RNR] 50 nM, 1:1 RNR1:RNR2; CDP 5 μM; ATP 1 mM; 37° C., 45 min; compounds screened up to 50 μM
T1 sequence (P23921 1-792): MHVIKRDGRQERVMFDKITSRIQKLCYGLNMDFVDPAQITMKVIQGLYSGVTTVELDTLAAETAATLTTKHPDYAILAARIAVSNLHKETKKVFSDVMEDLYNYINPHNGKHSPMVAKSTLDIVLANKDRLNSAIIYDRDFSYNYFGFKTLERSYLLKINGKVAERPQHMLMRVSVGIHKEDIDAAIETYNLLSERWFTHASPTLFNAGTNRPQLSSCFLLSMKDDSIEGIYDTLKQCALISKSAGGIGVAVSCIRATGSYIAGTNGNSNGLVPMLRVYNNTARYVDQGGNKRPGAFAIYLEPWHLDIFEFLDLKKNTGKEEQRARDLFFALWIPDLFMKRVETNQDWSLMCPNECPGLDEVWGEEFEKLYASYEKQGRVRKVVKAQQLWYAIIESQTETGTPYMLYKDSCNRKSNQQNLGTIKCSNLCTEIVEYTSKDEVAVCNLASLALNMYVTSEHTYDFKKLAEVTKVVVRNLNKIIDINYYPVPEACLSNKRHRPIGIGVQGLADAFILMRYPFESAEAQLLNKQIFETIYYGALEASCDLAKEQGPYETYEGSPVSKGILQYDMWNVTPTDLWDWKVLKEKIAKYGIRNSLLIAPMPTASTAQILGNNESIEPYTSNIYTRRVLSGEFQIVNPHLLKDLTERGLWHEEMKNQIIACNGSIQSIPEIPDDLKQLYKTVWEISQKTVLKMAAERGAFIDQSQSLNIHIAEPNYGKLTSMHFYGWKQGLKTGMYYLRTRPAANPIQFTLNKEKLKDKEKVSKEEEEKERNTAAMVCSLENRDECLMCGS
Procedure, shortened: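 Human RNR (50 nM final, RNR1:RNR2 1:1) pre-incubated 15 min at room temperature, then reacted 45 min at 37 °C with 5 μM CDP and 1 mM ATP, no NADPH. Reaction quenched with 6% HCOOH; product quantified by rapid-fire mass spectrometry.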

[2] = test system: pCHK1 (S345) in Colo320 DM cells; assay: Alphalisa assay, detection of pCHK1 (S345) in Colo320 DM cells; assay type: cell-based, human; conditions: Homo sapiens, COLO 320DM, compound overnight (approximately 16 hours)
Procedure, shortened: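 Phospho-CHK1 (S345) read by AlphaLisa SureFire in lysates of human colorectal Colo320 DM cells. Compound treatment ran overnight (~16 h, 37 °C, DMSO <0.5%) on cells seeded the day before.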

With Cc1ccc(F)c([C@@H](C)[C@@H](c2n[nH]c(=O)o2)N2CN(CCN3CCOCC3)c3cc(Cl)ccc3S2(=O)=O)c1C [Example 84, 5-((1S,2R)-1-(6-chloro-4-(2-morpholinoethyl)-1,1-dioxido-3,4-dihydro-2H-benzo[e][1,2,4]thiadiazin-2-yl)-2-(6-fluoro-2,3-dimethylphenyl)propyl)-1,3,4-oxadiazol-2 (3H)-one] the IC50 [1] was under 0.02 µM and the IC50 [2] was at most 1 µM.
Work on Cc1ccc(F)c([C@@H](C)[C@@H](c2n[nH]c(=O)o2)N2CCNc3cc(Cl)ccc3S2(=O)=O)c1C [Example 21, 5-((1S,2R)-1-(7-chloro-1,1-dioxido-4,5-dihydrobenzo[f][1,2,5]thiadiazepin-2 (3H)-yl)-2-(6-fluoro-2,3-dimethylphenyl)propyl)-1,3,4-oxadiazol-2 (3H)-one] yielded an IC50 [1] of 0.02 to 0.1 µM and an IC50 [2] of 1 to 5 µM.
Cc1ccc(F)c([C@@H](C)[C@@H](c2n[nH]c(=O)o2)N2CN(CC3CCOC3)c3cc(Cl)ccc3S2(=O)=O)c1C (stereo partly drawn) [Example 49, 5-((1S,2R)-1-(6-chloro-1,1-dioxido-4-((tetrahydrofuran-3-yl)methyl)-3,4-dihydro-2H-benzo[e][1,2,4]thiadiazin-2-yl)-2-(6-fluoro-2,3-dimethylphenyl)propyl)-1,3,4-oxadiazol-2 (3H)-one] showed an IC50 [1] of under 0.02 µM and an IC50 [2] of at most 1 µM.
Cc1ccc(F)c([C@@H](C)[C@@H](c2n[nH]c(=O)o2)N2CCOc3cc(Cl)c(CO)cc3S2(=O)=O)c1C [Example 77, 5-((1S,2R)-1-(7-chloro-8-(hydroxymethyl)-1,1-dioxido-3,4-dihydro-2H-benzo[b][1,4,5]oxathiazepin-2-yl)-2-(6-fluoro-2,3-dimethylphenyl)propyl)-1,3,4-oxadiazol-2 (3H)-one] gave an IC50 [1] of 0.1 to 1 µM and an IC50 [2] of over 50 µM.
Cc1cc2c(cc1Cl)N(C)CN([C@H](c1n[nH]c(=O)o1)[C@H](C)c1c(F)ccc(C)c1C)S2(=O)=O [Example 12, 5-((1S,2R)-1-(6-chloro-4,7-dimethyl-1,1-dioxido-3,4-dihydro-2H-benzo[e][1,2,4]thiadiazin-2-yl)-2-(6-fluoro-2,3-dimethylphenyl)propyl)-1,3,4-oxadiazol-2 (3H)-one] gave an IC50 [1] of 0.02 to 0.1 µM and an IC50 [2] of 5 to 10 µM.
COCCN1CN([C@H](c2n[nH]c(=O)o2)[C@H](C)c2c(F)ccc(C)c2C)S(=O)(=O)c2ccc(Cl)cc21 [Example 45, 5-((1S,2R)-1-(6-chloro-4-(2-methoxyethyl)-1,1-dioxido-3,4-dihydro-2H-benzo[e][1,2,4]thiadiazin-2-yl)-2-(6-fluoro-2,3-dimethylphenyl)propyl)-1,3,4-oxadiazol-2 (3H)-one] gave an IC50 [1] of under 0.02 µM and an IC50 [2] of at most 1 µM.
Work on Cc1ccc(F)c([C@@H](C)[C@@H](c2n[nH]c(=O)o2)N2CN(C3CNC3)c3cc(Cl)ccc3S2(=O)=O)c1C [Example 57, 5-((1S,2R)-1-(4-(azetidin-3-yl)-6-chloro-1,1-dioxido-3,4-dihydro-2H-benzo[e][1,2,4]thiadiazin-2-yl)-2-(6-fluoro-2,3-dimethylphenyl)propyl)-1,3,4-oxadiazol-2 (3H)-one] yielded an IC50 [1] of 0.02 to 0.1 µM and an IC50 [2] of 10 to 50 µM.
In the case of Cc1ccc(F)c([C@@H](C)[C@@H](c2n[nH]c(=O)o2)N2CN(C3CC3)c3cc(Cl)cc(C(C)Cl)c3S2(=O)=O)c1C (stereo partly drawn) [Example 100, 5-((1S,2R)-1-(6-chloro-8-(1-chloroethyl)-4-cyclopropyl-1,1-dioxido-3,4-dihydro-2H-benzo[e][1,2,4]thiadiazin-2-yl)-2-(6-fluoro-2,3-dimethylphenyl)propyl)-1,3,4-oxadiazol-2 (3H)-one], the IC50 [1] is reported as 0.02 to 0.1 µM and the IC50 [2] is reported as 1 to 5 µM.
For Cc1ccc(F)c([C@@H](C)[C@@H](c2n[nH]c(=O)o2)N2CN(C3CCCN(C)C3)c3cc(Cl)ccc3S2(=O)=O)c1C (stereo partly drawn) [Example 51, 5-((1S,2R)-1-(6-chloro-4-(1-methylpiperidin-3-yl)-1,1-dioxido-3,4-dihydro-2H-benzo[e][1,2,4]thiadiazin-2-yl)-2-(6-fluoro-2,3-dimethylphenyl)propyl)-1,3,4-oxadiazol-2 (3H)-one], the IC50 [1] was under 0.02 µM and the IC50 [2] was at most 1 µM.
Cc1ccc(F)c([C@@H](C)[C@@H](c2n[nH]c(=O)o2)N2CN(CCN(C)C)c3cc(Cl)ccc3S2(=O)=O)c1C [Example 38, 5-((1S,2R)-1-(6-chloro-4-(2-(dimethylamino)ethyl)-1,1-dioxido-3,4-dihydro-2H-benzo[e][1,2,4]thiadiazin-2-yl)-2-(6-fluoro-2,3-dimethylphenyl)propyl)-1,3,4-oxadiazol-2 (3H)-one] was tested, and the IC50 [1] was under 0.02 µM and the IC50 [2] was at most 1 µM.
In the case of CCCN1CN([C@H](c2n[nH]c(=O)o2)[C@H](C)c2c(F)ccc(C)c2C)S(=O)(=O)c2ccc(Cl)cc21 [Example 10, 5-((1S,2R)-1-(6-chloro-1,1-dioxido-4-propyl-3,4-dihydro-2H-benzo[e][1,2,4]thiadiazin-2-yl)-2-(6-fluoro-2,3-dimethylphenyl)propyl)-1,3,4-oxadiazol-2 (3H)-one], the IC50 [1] is reported as under 0.02 µM and the IC50 [2] is reported as at most 1 µM.
Work on Cc1ccc(F)c([C@@H](C)[C@@H](c2n[nH]c(=O)o2)N2CN(CCCO)c3cc(Cl)ccc3S2(=O)=O)c1C [Example 79, 5-((1S,2R)-1-(6-chloro-4-(3-hydroxypropyl)-1,1-dioxido-3,4-dihydro-2H-benzo[e][1,2,4]thiadiazin-2-yl)-2-(6-fluoro-2,3-dimethylphenyl)propyl)-1,3,4-oxadiazol-2 (3H)-one] yielded an IC50 [1] of under 0.02 µM and an IC50 [2] of at most 1 µM.
COCCCN1CN([C@H](c2n[nH]c(=O)o2)[C@H](C)c2c(F)ccc(C)c2C)S(=O)(=O)c2ccc(Cl)cc21 [Example 30, 5-((1S,2R)-1-(6-chloro-4-(3-methoxypropyl)-1,1-dioxido-3,4-dihydro-2H-benzo[e][1,2,4]thiadiazin-2-yl)-2-(6-fluoro-2,3-dimethylphenyl)propyl)-1,3,4-oxadiazol-2 (3H)-one] gave an IC50 [1] of under 0.02 µM and an IC50 [2] of at most 1 µM.
In the case of Cc1ccc(F)c([C@@H](C)[C@@H](c2n[nH]c(=O)o2)N2CCOc3cc(Cl)cc(C(N)=O)c3S2(=O)=O)c1C [Example 23, 7-chloro-2-((1S,2R)-2-(6-fluoro-2,3-dimethylphenyl)-1-(5-oxo-4,5-dihydro-1,3,4-oxadiazol-2-yl)propyl)-3,4-dihydro-2H-benzo[b][1,4,5]oxathiazepine-9-carboxamide 1,1-dioxide], the IC50 [1] is reported as under 0.02 µM and the IC50 [2] is reported as 1 to 5 µM.
COCc1cc2c(cc1Cl)OCCN([C@H](c1n[nH]c(=O)o1)[C@H](C)c1c(F)ccc(C)c1C)S2(=O)=O [Example 69, 5-((1S,2R)-1-(7-chloro-8-(methoxymethyl)-1,1-dioxido-3,4-dihydro-2H-benzo[b][,4,5]oxathiazepin-2-yl)-2-(6-fluoro-2,3-dimethylphenyl)propyl)-1,3,4-oxadiazol-2 (3H)-one] showed an IC50 [1] of 1 to 10 µM and an IC50 [2] of over 50 µM.
In the case of Cc1ccc(F)c([C@@H](C)[C@@H](c2n[nH]c(=O)o2)N2CN(C)c3c(ccc(Cl)c3CN3CCCCC3)S2(=O)=O)c1C [Example 61, 5-((1S,2R)-1-(6-chloro-4-methyl-1,1-dioxido-5-(piperidin-1-ylmethyl)-3,4-dihydro-2H-benzo[e][1,2,4]thiadiazin-2-yl)-2-(6-fluoro-2,3-dimethylphenyl)propyl)-1,3,4-oxadiazol-2 (3H)-one], the IC50 [1] is reported as 0.1 to 1 µM and the IC50 [2] is reported as 10 to 50 µM.
Compound COCc1cc(Cl)cc2c1S(=O)(=O)N([C@H](c1n[nH]c(=O)o1)[C@H](C)c1c(F)ccc(C)c1C)CCO2 [Example 71, 5-((1S,2R)-1-(7-chloro-9-(methoxymethyl)-1,1-dioxido-3,4-dihydro-2H-benzo[b][1,4,5]oxathiazepin-2-yl)-2-(6-fluoro-2,3-dimethylphenyl)propyl)-1,3,4-oxadiazol-2 (3H)-one] has an IC50 [1] of 0.1 to 1 µM and an IC50 [2] of at most 1 µM.
Compound Cc1ccc(F)c([C@@H](C)[C@@H](c2n[nH]c(=O)o2)N2CN(C)c3cc(Cl)cnc3S2(=O)=O)c1C [Example 5, 5-((1S,2R)-1-(6-chloro-4-methyl-1,1-dioxido-3,4-dihydro-2H-pyrido[3,2-e][1,2,4]thiadiazin-2-yl)-2-(6-fluoro-2,3-dimethylphenyl)propyl)-1,3,4-oxadiazol-2 (3H)-one] has an IC50 [1] of 0.02 to 0.1 µM and an IC50 [2] of 1 to 5 µM.
